Data on seven molecules can be found in ChEMBL document CHEMBL1201862, “PubChem BioAssay data set” (2004).

Molecules are shown by their SMILES.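 Tested at 5 concentrations; 48 h exposure; 96-well plates; endpoints linearly interpolated, else capped at highest concentration. GI50 is the concentration that inhibits growth by half.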 Activity calls are given as the source filed them. No stated cut-off is given here; in the data, active = GI50 up to about 1.1 µM and inactive = higher.

Among the test systems are UACC-257; SW-620; OVCAR-4; UO-31; SR; KM-20L2; SK-OV-3; HL-60; HCT-15; TK-10; OVCAR-8; M14; UACC-62; LOX IMVI; OVCAR-3; MDA-MB-435; DU-145; NCI/ADR-RES; MDA-N; BT-549.
Common to all, as to assay: DTP human tumour cell line panel, 48 h

The GI50 is the concentration that inhibits growth by half. On to `S=c1nc(N2CCCCC2)ss1`, for which the GI50 in the assay on UACC-257 was 19.8 µM (inactive); in the assay on SW-620, 24.8 µM (inactive); with OVCAR-4, 38.2 µM (inactive); with UO-31, 17.7 µM (inactive); in the assay with SR it was 14.2 µM (inactive); in the assay on KM-20L2, > 100 µM (inactive). Further, the GI50 in the assay with SK-OV-3 is > 100 µM (inactive); with HL-60 it was 13.5 µM (inactive); in the assay on HCT-15 it was 21.1 µM; in the assay on TK-10 it was 40.6 µM (inactive); in the assay with OVCAR-8, 28.5 µM (inactive); in the assay on M14 it was 20.2 µM (inactive). Also, the GI50 with UACC-62 was 17.5 µM (inactive).

`COS(=O)CCOC(=O)c1ccccc1SSc1ccccc1C(=O)OCCS(=O)OC` (stereo not given): the GI50 in the assay on UACC-257 is 15.6 µM (inactive); in the assay with SW-620, 31 µM (inactive); with OVCAR-4 it was 16.4 µM (inactive); with UO-31, 15.5 µM (inactive); in the assay on LOX IMVI, 22.2 µM (inactive); in the assay on OVCAR-3 it was 22.1 µM (inactive). Moreover, the GI50 is 61 µM (inactive) in the assay on KM-20L2; > 100 µM (inactive) with SK-OV-3; 23.8 µM with HCT-15; 81.8 µM (inactive) in the assay on TK-10; 22.3 µM (inactive) in the assay with OVCAR-8; 20 µM (inactive) with M14. Besides, in the assay on UACC-62, the GI50 is 20.5 µM (inactive).

In the case of `O=S(=O)(c1ccccc1)N1CCC1c1ccccc1` (stereo not given), the GI50 with UACC-257 is 63.2 µM (inactive); in the assay with SW-620, > 100 µM (inactive); in the assay on OVCAR-4, 89.5 µM (inactive); in the assay on UO-31, 29.6 µM (inactive); with LOX IMVI, > 100 µM (inactive); with OVCAR-3 it was > 100 µM (inactive). In addition, the GI50 with KM-20L2 is > 100 µM (inactive); with SK-OV-3 it was > 100 µM (inactive); with HL-60, 6.34 µM (inactive); in the assay on HCT-15 it was more than 100 µM; with TK-10, > 100 µM (inactive); in the assay with OVCAR-8 it was > 100 µM (inactive). Further, the results for the GI50 in the assay on M14 and in the assay with UACC-62 were > 100 µM (inactive) and 77.8 µM (inactive), respectively.

Take `Cc1ccccc1C1=[N+]([O-])c2ccc(Cl)cc2C1=O`: the GI50 with UACC-257 was 13.1 µM (inactive); in the assay on SW-620, 25.4 µM (inactive); with UO-31 it was 14.3 µM (inactive); in the assay on LOX IMVI it was 7.78 µM (inactive); with OVCAR-3, 2.6 µM (inactive); with SR, 11.8 µM (inactive). Moreover, the GI50 is 4.51 µM (inactive) in the assay with KM-20L2; 26.4 µM (inactive) with SK-OV-3; 2.35 µM (inactive) with HL-60; 13.3 µM in the assay with HCT-15; 20 µM (inactive) in the assay on TK-10; 7.14 µM (inactive) in the assay on OVCAR-8. The GI50 is 16.3 µM (inactive) in the assay with M14 and 12.4 µM (inactive) in the assay with UACC-62.

On to `Sc1ccccc1S`, for which the GI50 is > 100 µM (inactive) with SW-620; > 100 µM (inactive) in the assay on OVCAR-4; > 10 µM (inactive) in the assay with UO-31; > 100 µM (inactive) in the assay with LOX IMVI; > 100 µM (inactive) in the assay with OVCAR-3; > 100 µM (inactive) in the assay with KM-20L2. Moreover, the GI50 with SK-OV-3 is > 100 µM (inactive); with HL-60 it was > 100 µM (inactive); in the assay on HCT-15 it was more than 100 µM; in the assay on TK-10, > 10 µM (inactive); in the assay with OVCAR-8 it was > 10 µM (inactive); with M14 it was > 100 µM (inactive). Besides, the GI50 in the assay with UACC-62 was > 100 µM (inactive).

`CN(C)c1nc(-c2ccccc2)c(C(=O)c2c[nH]c3ccccc23)s1`: the GI50 with UACC-257 is 6.71 µM (inactive); in the assay with SW-620 it was 5.24 µM (inactive); with MDA-MB-435 it was 2.09 µM (inactive); in the assay with OVCAR-4 it was 17.4 µM (inactive); in the assay on UO-31, 11.2 µM (inactive); in the assay on LOX IMVI, 6.49 µM (inactive). In addition, the GI50 with OVCAR-3 is 5.04 µM (inactive); in the assay with DU-145 it was 34.2 µM (inactive); in the assay with SR it was 1.54 µM (inactive); in the assay with NCI/ADR-RES, 3.06 µM (inactive); with MDA-N, 1.93 µM (inactive); with SK-OV-3 it was 7.6 µM (inactive). The GI50 with HL-60 is 3.4 µM (inactive); in the assay on BT-549 it was > 100 µM (inactive); with HCT-15, 3.9 µM; in the assay with TK-10 it was 7.53 µM (inactive); with OVCAR-8, 9.62 µM (inactive); with M14, 4.59 µM (inactive). Also, the GI50 in the assay with UACC-62 was 6.05 µM (inactive).

`CC1c2cc(c3c(c2O)CN([C@@H](C)C2CCCCC2)CO3)C(C)c2cc(c3c(c2O)CN([C@@H](C)C2CCCCC2)CO3)C(C)c2cc(c3c(c2O)CN([C@@H](C)C2CCCCC2)CO3)C(C)c2cc1c1c(c2O)CN([C@@H](C)C2CCCCC2)CO1` (stereo not given in full): the GI50 is 1.66 µM (inactive) with UACC-257; 0.986 µM (active) in the assay with SW-620; 1.8 µM (inactive) in the assay with MDA-MB-435; 0.929 µM (active) in the assay on OVCAR-4; 1.81 µM (inactive) with UO-31; 0.681 µM (active) with LOX IMVI. The GI50 in the assay on OVCAR-3 is 1.71 µM (inactive); in the assay on DU-145, 1.35 µM (inactive); in the assay on SR it was 0.197 µM (active); with NCI/ADR-RES it was 1.27 µM (inactive); in the assay on MDA-N, 0.849 µM (active); in the assay on SK-OV-3, 1.48 µM (inactive). The GI50 with HL-60 was 0.152 µM (active); with BT-549, 1.77 µM (inactive); in the assay on HCT-15, 1.51 µM; with TK-10 it was 1.73 µM (inactive); in the assay with OVCAR-8 it was 1.15 µM (inactive); in the assay on M14 it was 2.3 µM (inactive). In the assay with UACC-62, the GI50 is 1.8 µM (inactive).
